# According to ChEMBL document CHEMBL1201861, “Genomics of Drug Sensitity in Cancer screening data, Wellcome Trust Sanger Institute”:
# How the values were obtained:
# Experiment in all cases: cells
# Conditions in all cases: Homo sapiens
# [1] = test system: TGBC24TKB; format: functional, cell-based;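 note: growth inhibition of human TGBC24TKB cells, read out with a cell viability assay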
# Description: SANGER: Inhibition of human TGBC24TKB cell growth in a cell viability assay.
# [2] = test system: COLO-829; format: functional, cell-based
# Description: SANGER: Inhibition of human COLO-829 cell growth in a cell viability assay.
# [3] = test system: NCI-H1581; format: functional, cell-based;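 note: cell growth inhibition read out by a viability assay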
# Description: SANGER: Inhibition of human NCI-H1581 cell growth in a cell viability assay.
# [4] = test system: IST-SL1; format: functional, cell-based;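 note: growth inhibition of human IST-SL1 cells, read out with a cell viability assay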
# Description: SANGER: Inhibition of human IST-SL1 cell growth in a cell viability assay.
# [5] = test system: EW-18; format: functional, cell-based;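 note: growth inhibition of EW-18 cells, read out by a cell viability assay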
# Description: SANGER: Inhibition of human EW-18 cell growth in a cell viability assay.
# [6] = test system: A204; format: functional, cell-based;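 note: growth inhibition of human A204 cells, read out with a cell viability assay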
# Description: SANGER: Inhibition of human A204 cell growth in a cell viability assay.
# [7] = test system: NCI-H1395; format: functional, cell-based;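 note: cell viability assay read-out quantifying reduced proliferation of human NCI-H1395 cells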
# Description: SANGER: Inhibition of human NCI-H1395 cell growth in a cell viability assay.
# [8] = test system: JAR; format: functional, cell-based;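 note: growth inhibition of human JAR cells determined with a cell viability assay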
# Description: SANGER: Inhibition of human JAR cell growth in a cell viability assay.
# [9] = test system: ALL-PO; format: functional, cell-based;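 note: growth inhibition of ALL-PO cells, read out by a cell viability assay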
# Description: SANGER: Inhibition of human ALL-PO cell growth in a cell viability assay.
# [10] = test system: MEG-01; format: functional, cell-based;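 note: growth inhibition of MEG-01 cells, read out by a cell viability assay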
# Description: SANGER: Inhibition of human MEG-01 cell growth in a cell viability assay.
# [11] = test system: L-363; format: functional, cell-based
# Description: SANGER: Inhibition of human L-363 cell growth in a cell viability assay.
# [12] = test system: CW-2; format: functional, cell-based;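 note: growth inhibition of CW-2 cells, read out by a cell viability assay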
# Description: SANGER: Inhibition of human CW-2 cell growth in a cell viability assay.
# [13] = test system: BCPAP; format: functional, cell-based;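 note: growth inhibition of BCPAP cells, read out in a cell viability assay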
# Description: SANGER: Inhibition of human BCPAP cell growth in a cell viability assay.
# [14] = test system: MOLT-16; format: functional, cell-based;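 note: growth inhibition of human MOLT-16 cells, read out with a cell viability assay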
# Description: SANGER: Inhibition of human MOLT-16 cell growth in a cell viability assay.
# [15] = test system: A4-Fuk; format: functional, cell-based;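 note: growth inhibition of A4-Fuk cells, read out by a cell viability assay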
# Description: SANGER: Inhibition of human A4-Fuk cell growth in a cell viability assay.
# [16] = test system: HH; format: functional, cell-based
# Description: SANGER: Inhibition of human HH cell growth in a cell viability assay.
# [17] = test system: NCI-H1651; format: functional, cell-based;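 note: Read-out is a cell viability assay, with IC50 expressing inhibition of NCI-H1651 cell growth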
# Description: SANGER: Inhibition of human NCI-H1651 cell growth in a cell viability assay.
# [18] = test system: BB65-RCC; format: functional, cell-based;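 note: growth inhibition of the cell line, measured with a cell viability assay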
# Description: SANGER: Inhibition of human BB65-RCC cell growth in a cell viability assay.
# [19] = test system: BB49-HNC; format: functional, cell-based;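 note: cell viability assay read-out, reported as inhibition of BB49-HNC cell growth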
# Description: SANGER: Inhibition of human BB49-HNC cell growth in a cell viability assay.
# [20] = test system: LS-411N; format: functional, cell-based
# [21] = test system: NKM-1; format: functional, cell-based;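 note: growth inhibition of NKM-1 cells, read out with a cell viability assay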
# Description: SANGER: Inhibition of human NKM-1 cell growth in a cell viability assay.
# [22] = test system: MIA PaCa-2; format: functional, cell-based;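 note: growth inhibition of MIA PaCa-2 cells, read out with a cell viability assay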
# Description: SANGER: Inhibition of human MIA-PaCa-2 cell growth in a cell viability assay.
# [23] = test system: CP66-MEL; format: functional, cell-based;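 note: growth inhibition of CP66-MEL cells determined in a cell viability assay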
# Description: SANGER: Inhibition of human CP66-MEL cell growth in a cell viability assay.
# [24] = test system: SW982; format: functional, cell-based;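 note: growth inhibition of SW982 cells, read out with a cell viability assay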
# Description: SANGER: Inhibition of human SW982 cell growth in a cell viability assay.
# [25] = test system: LB2241-RCC; format: functional, cell-based;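 note: cell viability assay measuring how strongly the cultured human renal carcinoma line is prevented from growing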
# Description: SANGER: Inhibition of human LB2241-RCC cell growth in a cell viability assay.
# [26] = test system: COLO-320-HSR; format: functional, cell-based;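 note: growth inhibition of COLO-320-HSR cells, determined with a cell viability assay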
# Description: SANGER: Inhibition of human COLO-320-HSR cell growth in a cell viability assay.
# [27] = test system: NCI-H526; format: functional, cell-based;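 note: growth inhibition of the human NCI-H526 cell line, measured by a cell viability assay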
# Description: SANGER: Inhibition of human NCI-H526 cell growth in a cell viability assay.
# [28] = test system: GI-ME-N; format: functional, cell-based;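 note: growth inhibition of human GI-ME-N cells, read out with a cell viability assay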
# Description: SANGER: Inhibition of human GI-ME-N cell growth in a cell viability assay.
# [29] = test system: BV-173; format: functional, cell-based
# Description: SANGER: Inhibition of human BV-173 cell growth in a cell viability assay.
# [30] = test system: ES4; format: functional, cell-based;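 note: growth inhibition of human ES4 cells, read out by a cell viability assay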
# Description: SANGER: Inhibition of human ES4 cell growth in a cell viability assay.
# [31] = test system: U-266; format: functional, cell-based
# Description: SANGER: Inhibition of human U-266 cell growth in a cell viability assay.
# [32] = test system: GT3TKB; format: functional, cell-based;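 note: growth inhibition of the cell line, read out with a cell viability assay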
# Description: SANGER: Inhibition of human GT3TKB cell growth in a cell viability assay.
# [33] = test system: LU-134-A; format: functional, cell-based
# Description: SANGER: Inhibition of human LU-134-A cell growth in a cell viability assay.
# [34] = test system: RXF 393; format: functional, cell-based;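 note: growth inhibition of human RXF 393 cells, read out with a cell viability assay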
# Description: SANGER: Inhibition of human RXF393 cell growth in a cell viability assay.
# [35] = test system: VA-ES-BJ; format: functional, cell-based;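 note: growth inhibition of the VA-ES-BJ cell line, read out by a cell viability assay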
# Description: SANGER: Inhibition of human VA-ES-BJ cell growth in a cell viability assay.
# [36] = test system: P30-OHK; format: functional, cell-based;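 note: growth inhibition of the P30-OHK cell line, read out with a cell viability assay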
# Description: SANGER: Inhibition of human P30-OHK cell growth in a cell viability assay.
# [37] = test system: HL-60; format: functional, cell-based;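 note: growth inhibition of human HL-60 cells, read out with a cell viability assay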
# Description: SANGER: Inhibition of human HL-60 cell growth in a cell viability assay.
# [38] = test system: DEL; format: functional, cell-based;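 note: growth inhibition of the human DEL cell line, read out with a cell viability assay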
# Description: SANGER: Inhibition of human DEL cell growth in a cell viability assay.
# [39] = test system: MKN-45; format: functional, cell-based;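 note: growth inhibition of human MKN-45 cells, measured with a cell viability assay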
# Description: SANGER: Inhibition of human MKN45 cell growth in a cell viability assay.
# [40] = test system: MOLT-4; format: functional, cell-based;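 note: growth inhibition of MOLT-4 cells, determined with a cell viability readout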
# Description: SANGER: Inhibition of human MOLT-4 cell growth in a cell viability assay.
# [41] = test system: LB831-BLC; format: functional, cell-based;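 note: growth inhibition of LB831-BLC cells, read out with a cell viability assay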
# Description: SANGER: Inhibition of human LB831-BLC cell growth in a cell viability assay.
# [42] = test system: EM-2; format: functional, cell-based;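 note: growth inhibition of EM-2 cells, read out with a cell viability assay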
# Description: SANGER: Inhibition of human EM-2 cell growth in a cell viability assay.
# [43] = test system: NCI-H2126; format: functional, cell-based;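 note: growth inhibition of the cancer cell line, determined with a cell viability readout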
# Description: SANGER: Inhibition of human NCI-H2126 cell growth in a cell viability assay.
# [44] = test system: LS-123; format: functional, cell-based
# Description: SANGER: Inhibition of human LS-123 cell growth in a cell viability assay.
# [45] = test system: MZ2-MEL; format: functional, cell-based;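 note: growth inhibition of MZ2-MEL cells read out with a cell viability assay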
# Description: SANGER: Inhibition of human MZ2-MEL cell growth in a cell viability assay.
# [46] = test system: ACN; format: functional, cell-based;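 note: growth inhibition of the human ACN cell line, read out via cell viability testing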
# Description: SANGER: Inhibition of human ACN cell growth in a cell viability assay.
# [47] = test system: DoTc2-4510; format: functional, cell-based
# [48] = test system: IGROV-1; format: functional, cell-based;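 note: reduction of IGROV-1 cell growth, read out with a viability assay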
# Description: SANGER: Inhibition of human IGROV-1 cell growth in a cell viability assay.
# [49] = test system: A-431; format: functional, cell-based;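 note: growth inhibition of A-431 cells, determined with a cell viability read-out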
# Description: SANGER: Inhibition of human A431 cell growth in a cell viability assay.
# [50] = test system: DJM-1; format: functional, cell-based;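 note: growth inhibition of human DJM-1 cells, read out by a cell viability assay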
# Description: SANGER: Inhibition of human DJM-1 cell growth in a cell viability assay.
# [51] = test system: NB69; format: functional, cell-based;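 note: growth inhibition of NB69 cells, determined by a cell viability assay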
# Description: SANGER: Inhibition of human NB69 cell growth in a cell viability assay.
# [52] = test system: GB-1; format: functional, cell-based;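 note: growth of GB-1 cells judged by a viability assay, IC50 marks the concentration inhibiting growth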
# Description: SANGER: Inhibition of human GB-1 cell growth in a cell viability assay.
# [53] = test system: NCI-H1299; format: functional, cell-based;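 note: growth inhibition of human NCI-H1299 cells, read out by a cell viability assay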
# Description: SANGER: Inhibition of human NCI-H1299 cell growth in a cell viability assay.
# [54] = test system: Becker; format: functional, cell-based;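 note: growth inhibition of Becker cells, read out with a cell viability assay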
# Description: SANGER: Inhibition of human Becker cell growth in a cell viability assay.
# [55] = test system: MV4-11; format: functional, cell-based, MV-4-11;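 note: cell viability readout measuring growth inhibition of human MV-4-11 cells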
# Description: SANGER: Inhibition of human MV-4-11 cell growth in a cell viability assay.
# [56] = test system: KM12; format: functional, cell-based;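 note: KM12 cell growth inhibition, read out with a cell viability assay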
# Description: SANGER: Inhibition of human KM12 cell growth in a cell viability assay.
# [57] = test system: RS4-11; format: functional, cell-based;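 note: growth inhibition of RS4-11 cells, read out by a cell viability assay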
# Description: SANGER: Inhibition of human RS4-11 cell growth in a cell viability assay.
# [58] = test system: NB13; format: functional, cell-based
# Description: SANGER: Inhibition of human NB13 cell growth in a cell viability assay.
# [59] = test system: MFH-ino; format: functional, cell-based
# Description: SANGER: Inhibition of human MFH-ino cell growth in a cell viability assay.
# [60] = test system: NCI-H720; format: functional, cell-based
# Description: SANGER: Inhibition of human NCI-H720 cell growth in a cell viability assay.
# [61] = test system: RPMI-2650; format: functional, cell-based
# Description: SANGER: Inhibition of human RPMI-2650 cell growth in a cell viability assay.
# [62] = test system: KY821; format: functional, cell-based
# Description: SANGER: Inhibition of human KY821 cell growth in a cell viability assay.
structure (smiles),measurement,setting,value
NC(=O)c1ncn([C@@H]2O[C@H](COP(=O)(O)O)[C@@H](O)[C@H]2O)c1N,IC50,[1],736 µM
same,IC50,[2],> 2000 µM
same,IC50,[3],> 2000 µM
same,IC50,[4],> 2000 µM
same,IC50,[5],> 2 mM
same,IC50,[6],> 2000 µM
same,IC50,[7],> 2 mM
same,IC50,[8],346 µM
same,IC50,[9],755 µM
same,IC50,[10],447 µM
same,IC50,[11],179 µM
same,IC50,[12],> 2000 µM
same,IC50,[13],733 µM
same,IC50,[14],> 2000 µM
same,IC50,[15],297 µM
same,IC50,[16],232 µM
same,IC50,[17],> 2000 µM
same,IC50,[18],1200 µM
same,IC50,[19],> 2 mM
same,IC50,[20],> 2000 µM
same,IC50,[21],180 µM
same,IC50,[22],> 2000 µM
same,IC50,[23],> 2 mM
same,IC50,[24],> 2000 µM
same,IC50,[25],1370 µM
same,IC50,[26],772 µM
same,IC50,[27],115 µM
same,IC50,[28],> 2000 µM
same,IC50,[29],93.8 µM
same,IC50,[30],1770 µM
same,IC50,[31],> 2000 µM
same,IC50,[32],> 2000 µM
same,IC50,[33],959 µM
same,IC50,[34],710 µM
same,IC50,[35],819 µM
same,IC50,[36],541 µM
same,IC50,[37],376 µM
same,IC50,[38],232 µM
same,IC50,[39],> 2000 µM
same,IC50,[40],485 µM
same,IC50,[41],> 2000 µM
same,IC50,[42],230 µM
same,IC50,[43],> 2 mM
same,IC50,[44],690 µM
same,IC50,[45],> 2000 µM
same,IC50,[46],1880 µM
same,IC50,[47],1250 µM
same,IC50,[48],> 2000 µM
same,IC50,[49],> 2 mM
same,IC50,[50],> 2 mM
same,IC50,[51],976 µM
same,IC50,[52],> 2000 µM
same,IC50,[53],> 2000 µM
same,IC50,[54],> 2000 µM
same,IC50,[55],108 µM
same,IC50,[56],> 2000 µM
same,IC50,[57],351 µM
CC[C@@]1(O)C(=O)OCc2c1cc1n(c2=O)Cc2cc3ccccc3nc2-1 [CAMPTOTHECIN],IC50,[1],0.0537 µM
same,IC50,[2],0.0117 µM
same,IC50,[3],0.0335 µM
same,IC50,[4],0.0344 µM
same,IC50,[6],0.00452 µM
same,IC50,[8],0.0145 µM
same,IC50,[9],0.00153 µM
same,IC50,[10],0.0395 µM
same,IC50,[11],0.00187 µM
same,IC50,[12],0.0354 µM
same,IC50,[13],0.00304 µM
same,IC50,[14],0.000732 µM
same,IC50,[15],0.00175 µM
same,IC50,[16],0.0135 µM
same,IC50,[17],0.0149 µM
same,IC50,[18],0.00185 µM
same,IC50,[20],0.0581 µM
same,IC50,[58],28.8 nM
same,IC50,[21],0.000441 µM
same,IC50,[22],0.00276 µM
same,IC50,[24],0.00406 µM
same,IC50,[25],0.00208 µM
same,IC50,[26],0.0621 µM
same,IC50,[27],0.00103 µM
same,IC50,[28],0.0339 µM
same,IC50,[29],0.00238 µM
same,IC50,[30],0.00147 µM
same,IC50,[31],0.0695 µM
same,IC50,[32],0.00176 µM
same,IC50,[33],0.000586 µM
same,IC50,[34],0.00466 µM
same,IC50,[35],0.00347 µM
same,IC50,[36],0.00279 µM
same,IC50,[37],0.00373 µM
same,IC50,[38],0.000816 µM
same,IC50,[39],0.0275 µM
same,IC50,[59],27.1 nM
same,IC50,[40],0.00162 µM
same,IC50,[60],44.7 nM
same,IC50,[41],0.0184 µM
same,IC50,[42],0.00408 µM
same,IC50,[44],> 0.1 µM
same,IC50,[45],0.0141 µM
same,IC50,[46],0.0857 µM
same,IC50,[47],0.00403 µM
same,IC50,[48],0.0363 µM
same,IC50,[49],> 0.0001 mM
same,IC50,[61],2.22 nM
same,IC50,[51],0.000569 µM
same,IC50,[52],0.00468 µM
same,IC50,[62],8.12 nM
same,IC50,[53],0.00943 µM
same,IC50,[54],0.0233 µM
same,IC50,[55],0.000706 µM
same,IC50,[56],0.075 µM
same,IC50,[57],0.000902 µM
